Assay results as given in article PMC9594046, “Identification of Histone Peptide Binding Specificity and Small-Molecule Ligands for the TRIM33α and TRIM33β Bromodomains” (ACS Chemical Biology, 2022).
Changes are numbered by the printed parent chain.

Key:
[1] = target: T1, TRIM33α PHD-BRD (Homo sapiens, UniProt Q9UPN9); test: AlphaScreen dose-response displacement of biotinylated H3 peptide; details: for IC50: TRIM33α IC50 (AlphaScreen)
T1 sequence (Q9UPN9 888-1127): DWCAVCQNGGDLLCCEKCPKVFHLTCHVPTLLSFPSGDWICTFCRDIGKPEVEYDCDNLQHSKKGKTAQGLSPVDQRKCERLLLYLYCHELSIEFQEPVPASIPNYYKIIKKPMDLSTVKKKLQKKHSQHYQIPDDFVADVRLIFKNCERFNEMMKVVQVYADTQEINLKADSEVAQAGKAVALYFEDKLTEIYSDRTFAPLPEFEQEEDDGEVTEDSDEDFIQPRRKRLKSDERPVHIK
Experimental: (§5) To establish an AlphaScreen assay,[13],[50],[51] the PHD-BRD cassettes of TRIM24 and both TRIM33 isoforms were expressed with an N-terminal His6 tag attached (CD spectra for these constructs are shown in Figure S9).
(§6) Assay buffer was freshly prepared each day by supplementing HEPES buffer with BSA, the pH was
(§7) adjusted to 7.6 and filter sterilized through a 0.22 µm filter, and stored at 4 °C until use.
(§8) steps, the plate was sealed, shaken for 10 sec at 600 rpm on a plate oscillator, and incubated at room
(§9) in triplicate, as point concentrations or serial buffer dilutions from 50 mM DMSO solutions.
(§10) peptide mix (7 µL) was dispensed into each well using a Thermo-Fisher electronic multi-channel
(§11) pipette, and incubated for 30 min. AlphaScreen bead mix (8 µL; 25 µg/mL of acceptor and donor beads)
(§12) was added to each well, taking adequate precautions to avoid light exposure, before being incubated for
(§13) 1 h. The plate was read using a Synergy™ 2 MultiMode Microplate Reader using the built-in
(§14) Single shot screening was performed in triplicate.
(§15) <0.5% DMSO. Inhibition is reported as a reduction in signal arising from peptide-bromodomain
(§16) interaction, normalised to a DMSO control. Signal response curves were obtained for peptides or
(§17) compounds in triplicate, with serial 1:2 dilutions. Samples containing buffer or DMSO in place of
(§18) compound were included in all assays for normalisation. Data were processed by fitting a four-
(§19) parameter equation shown below to calculate IC50 values using GraFit version 7.0.32 or GraphPad Prism
(§20) 𝑌 = 𝑀𝑖𝑛𝑖𝑚𝑢𝑚 + 𝑀𝑎𝑥𝑖𝑚𝑢𝑚 − 𝑚𝑖𝑛𝑖𝑚𝑢𝑚 ,𝑤ℎ𝑒𝑟𝑒 𝑋 = log (𝑐𝑜𝑚𝑝𝑜𝑢𝑛𝑑 𝑐𝑜𝑛𝑐𝑒𝑛𝑡𝑟𝑎𝑡𝑖𝑜𝑛) 1 + 10("#$%&!"’()(*+,, .,/01)
(§21) Assay buffer was prepared as above. For incubation steps, the plate was sealed, shaken for 10 sec at
(§22) 600 rpm on a plate oscillator, and incubated at room temperature in the dark. Peptides (5 µL) were
(§23) dilutions from 100 µM HEPES buffer stock solutions. Protein (7 µL) was dispensed into each well
(§24) using a Thermo-Fisher electronic multi-channel pipette, and incubated for 30 min. AlphaScreen bead
(§25) mix (8 µL; 25 µg/mL of acceptor and donor beads) was added to each well, avoiding light exposure,
(§26) before being incubated for 1 h. The plate was read using a Synergy™ 2 MultiMode Microplate Reader
(§27) Ni2+ chelate acceptor and streptavidin donor beads were prepared as a mixture in a 1:300 or 1:400
(§28) dilution as required (0.005–0.007 mg/mL FAC); biotinylated peptide employed, and final assay
(§29) concentrations were as detailed in table below. Assay well volume was 20 µL.
(§30) Peptides were supplied as 1–9 mg quantities with >95% purity (as determined by HPLC; Cambridge
(§31) Research Biochemicals or Genscript). Residual water and counter ions were predicted to comprise 20%
(§32) of the net mass, and peptides were dissolved to 10, 1.0, and 0.1 mM stocks in buffer (50 mM HEPES,
(§33) 500 mM NaCl; pH 7.6) before being stored at -80 °C in 5 µL aliquots. A terminal tyrosine residue was
(§34) incorporated into the peptide structure to allow for accurate quantification of concentration.

[2] = target: TRIM24 BRD; details: read-out: TRIM24 Kd (ITC); cited from earlier work
[3] = target: BRPF1 BRD; details: read-out: BRPF Kd (ITC); cited from earlier work
[4] = target: T2, TRIM24 PHD-BRD (Homo sapiens, UniProt O15164); test: AlphaScreen dose-response displacement of biotinylated H3 peptide
T2 sequence (O15164 with tags, fused parts or gaps): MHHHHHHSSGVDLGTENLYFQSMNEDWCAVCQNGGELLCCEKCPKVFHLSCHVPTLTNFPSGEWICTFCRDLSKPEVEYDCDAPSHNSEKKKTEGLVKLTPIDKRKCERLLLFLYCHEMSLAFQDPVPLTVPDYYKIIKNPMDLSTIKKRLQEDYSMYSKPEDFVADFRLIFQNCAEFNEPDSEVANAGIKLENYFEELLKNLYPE
Experimental: as §5, §6, §7, §8, §9, §10, §11, §12, §13, §14, §15, §16, §17, §18, §19, §20, §21, §22, §23, §24, §25, §26, §27, §28, §29, §30, §31, §32, §33, §34

[5] = system: TRIM33; set-up: method as in earlier work; details: isoform later confirmed to be TRIM33α; read-out: reported TRIM33 IC50 (AlphaScreen); cited from earlier work
[6] = target: T3, TRIM33β PHD-BRD (Homo sapiens, UniProt Q9UPN9); test: Isothermal titration calorimetry (ITC); assay type: binding; set-up: The TRIM33β cassette (residues 888–1127) was expressed; made in house; host or cells: E. coli BL21 (DE3) Gold; details: cell 40 µM compound, syringe 316 µM TRIM33β
T3 sequence (Q9UPN9 888-1110 isoform Q9UPN9-2 limits assumed): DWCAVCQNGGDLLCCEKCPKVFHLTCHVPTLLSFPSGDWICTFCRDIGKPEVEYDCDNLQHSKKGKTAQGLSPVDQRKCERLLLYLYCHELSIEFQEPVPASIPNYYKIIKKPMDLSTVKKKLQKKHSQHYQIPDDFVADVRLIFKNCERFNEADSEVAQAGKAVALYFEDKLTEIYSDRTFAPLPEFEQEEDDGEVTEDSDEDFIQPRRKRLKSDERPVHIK
Excerpt: The first data point was excluded from the analysis.
(1 picture or pasted object on this page, not shown here)

[7] = target: T3, TRIM33β PHD-BRD; test: AlphaScreen dose-response displacement of biotinylated H3 peptide
Experimental: as §5, §6, §7, §8, §9, §10, §11, §12, §13, §14, §15, §16, §17, §18, §19, §20, §21, §22, §23, §24, §25, §26, §27, §28, §29, §30, §31, §32, §33, §34

[8] = target: T4, TRIM33β WT (Homo sapiens, UniProt Q9UPN9); test: Qualitative WaterLOGSY binding; set-up: key: ✓: √ is assigned to compounds that showed binding; ? is assigned when the result was ambiguous; × is assigned when no-binding was observed; details: 500 µM compound, 20 µM protein
T4 construct: The TRIM33β cassette (residues 888–1127) was expressed; made in house; host or cells: E. coli BL21 (DE3) Gold
T4 sequence (Q9UPN9 888-1110 isoform Q9UPN9-2 limits assumed): T3 sequence (Q9UPN9 888-1110 isoform Q9UPN9-2 limits assumed)
Excerpt: To determine whether compounds 3–7 are genuine ligands for TRIM33, we employed an AlphaScreen TruHits screen.[58] The TruHits screen includes streptavidin-coated donor beads and biotinylated acceptor beads, which interact to generate a signal. Compounds that interfere with this control signal, such as fluorescence quenchers, insoluble light scatterers, ^1O2 quenchers, and biotin mimetics, can be identified using this approach. In the TruHits screen,[59] significant assay interference was observed from all five compounds (3–7, Table S21), meaning that AlphaScreen data generated for these compounds are unreliable. We therefore sought to investigate TRIM33 binding of compounds 3 and 4 using ITC and waterLOGSY approaches (Figures S3–6). These compounds were selected as they have a range of reported IC50 values for TRIM33. […] To determine whether these compounds are weak binders to TRIM33β, we subjected them to a waterLOGSY assay against TRIM33β. […] However, the use of different protein isoforms may account for some of the observed discrepancies.
(§1) To investigate where these compounds bind on the TRIM24 or 33 PHD-BRD cassette, we performed waterLOGSY experiments using the wild-type and mutant reader domains (Table 4).
(§2) Table S19. WaterLOGSY buffer composition (10 mM Na/K phosphate buffer, PBS, pH 7.6).
(§3) Reagent Amount required per litre (g)
(§4) The buffer was filtered under vacuum through a 0.2 µm filter paper (Sartorius UK) before use and stored at 4 °C. Proteins were buffer exchanged from HEPES storage buffer into PBS buffer (0.9% NaCl, pH 7.6) using GE Healthcare PD SpinTrap G-25 columns. For each compound, a water-suppressed 1H spectrum was recorded as a reference, followed by waterLOGSY spectra of the compound in the absence and presence of the specified protein. Samples were prepared to a total sample volume of 160 µL in PBS buffer (pH 7.6), with 500 µM compound (unless otherwise specified) from 50 mM DMSO-D6 stock solutions, 10% D2O for signal locking, and 20 µM protein (unless otherwise specified) for samples with protein. After loading into 3 mm Hilgenberg NMR tubes for Bruker Match™ system, samples were briefly centrifuged in a manual benchtop rotor. Spectra were recorded on a Bruker AVIII 700 MHz spectrometer with inverse TCI cryoprobe using a standard waterLOGSY pulse sequence.4 Peaks were assigned using DMSO-D6 as a reference peak at 2.5 ppm.

[9] = target: T5, TRIM33α N1039F (Homo sapiens, UniProt Q9UPN9, N1039F); test: Qualitative WaterLOGSY binding; set-up: key: ✓: √ is assigned to compounds that showed binding; ? is assigned when the result was ambiguous; × is assigned when no-binding was observed; details: 500 µM compound, 20 µM protein
T5 construct: The TRIM33β cassette (residues 888–1127) was expressed; made in house; host or cells: E. coli BL21 (DE3) Gold
T5 sequence (Q9UPN9 888-1127 N1039F): T1 sequence (Q9UPN9 888-1127) with N152F
Experimental: as §1, §2, §3, §4

[10] = target: T6, TRIM33β N1039F (Homo sapiens, UniProt Q9UPN9, N1039F); test: Qualitative WaterLOGSY binding; set-up: key: ✓: √ is assigned to compounds that showed binding; ? is assigned when the result was ambiguous; × is assigned when no-binding was observed; details: 500 µM compound, 20 µM protein
T6 construct: The TRIM33β cassette (residues 888–1127) was expressed; made in house; host or cells: E. coli BL21 (DE3) Gold
T6 sequence (Q9UPN9 888-1110 isoform Q9UPN9-2 N1039F): T3 sequence (Q9UPN9 888-1110 isoform Q9UPN9-2 limits assumed) with N152F
Experimental: as §1, §2, §3, §4

[11] = target: T7, TRIM24 WT (Homo sapiens, UniProt O15164); test: Qualitative WaterLOGSY binding; set-up: key: ✓: √ is assigned to compounds that showed binding; ? is assigned when the result was ambiguous; × is assigned when no-binding was observed; details: 500 µM compound, 20 µM protein
T7 construct: His6-TRIM24 (BRD-PHD); made in house; host or cells: E. coli BL21 (DE3) Gold
T7 sequence (O15164 with tags, fused parts or gaps): T2 sequence (O15164 with tags, fused parts or gaps)
Experimental: as §1, §2, §3, §4

[12] = target: T8, TRIM33α WT (Homo sapiens, UniProt Q9UPN9); test: Qualitative WaterLOGSY binding; set-up: key: ✓: √ is assigned to compounds that showed binding; ? is assigned when the result was ambiguous; × is assigned when no-binding was observed; details: 500 µM compound, 20 µM protein
T8 construct: The TRIM33β cassette (residues 888–1127) was expressed; made in house; host or cells: E. coli BL21 (DE3) Gold
T8 sequence (Q9UPN9 888-1127): T1 sequence (Q9UPN9 888-1127)
Experimental: as §1, §2, §3, §4

[13] = target: T9, TRIM24 N980F (Homo sapiens, UniProt O15164, N980F); test: Qualitative WaterLOGSY binding; set-up: key: ✓: √ is assigned to compounds that showed binding; ? is assigned when the result was ambiguous; × is assigned when no-binding was observed; details: 500 µM compound, 20 µM protein
T9 sequence (O15164 825-1007 N980F limits assumed): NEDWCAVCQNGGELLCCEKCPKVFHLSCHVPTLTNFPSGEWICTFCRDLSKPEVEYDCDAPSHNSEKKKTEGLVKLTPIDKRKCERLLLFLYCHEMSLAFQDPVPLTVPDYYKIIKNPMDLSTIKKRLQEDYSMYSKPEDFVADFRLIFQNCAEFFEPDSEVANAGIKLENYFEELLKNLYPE
Experimental: as §1, §2, §3, §4

[14] = peptide in assay H31-27K9Me3 (PHD)
[15] = peptide in assay H31-27K9Me3K18Ac (DUAL)
[16] = peptide in assay H31-27K18Ac (BRD)
[17] = TRIM24 IC50 (AlphaScreen), peptide in assay H31-27K9Me3 (PHD)
[18] = TRIM24 IC50 (AlphaScreen), peptide in assay H31-27K9Me3K18Ac (DUAL)
[19] = TRIM24 IC50 (AlphaScreen), peptide in assay H31-27K18Ac (BRD)

Row | SMILES | IC50 [1, 14] [µM] | IC50 [1, 15] [µM] | IC50 [1, 16] [µM] | IC50 [7, 14] [µM] | IC50 [7, 15] [µM] | IC50 [7, 16] [µM] | IC50 [4, 17] [µM] | IC50 [4, 18] [µM] | IC50 [4, 19] [µM] | WaterLOGSY binding TRIM33β WT [8] | WaterLOGSY binding TRIM33α N1039F [9] | WaterLOGSY binding TRIM33β N1039F [10] | WaterLOGSY binding TRIM24 WT [11] | WaterLOGSY binding TRIM33α WT [12] | WaterLOGSY binding TRIM24 N980F [13] | other results
1 | COc1ccc(Oc2cc3c(cc2NS(=O)(=O)c2ccc(OC)c(OC)c2)n(C)c(=O)n3C)cc1 [Compound 2] |  |  |  |  |  |  |  |  |  |  |  |  |  |  |  | displacement of H3_1–27K18Ac from TRIM33α (AlphaScreen) [1]: not for either isoform of TRIM33; Kd [2]: 0.222 µM; Kd [3]: 0.137 µM; IC50 ([4]; IC50 binding to the TRIM24 BRD-PHD (AlphaScreen), displacement of H3_1–27K18Ac): 0.219 µM
2 | COc1ccc(Nc2c(-c3[nH]cnc3C)nc3ccc(Br)cn23)cc1 [Compound 3] | 1.89 | 1.15 | 1.58 | 1.4 | 1.82 | 1.49 | 1.86 | 1.46 | 1.76 |  |  |  |  |  |  | IC50 [5]: 0.538 µM; binding to TRIM33β by ITC [6]: Neither compound showed binding
3 | COC(=O)c1ccc2nc(-c3c[nH]c(C)n3)c(NC3CCCCC3)n2c1 [Compound 6] | > 250 | 75.1 | 16.6 | 6.69 | 8.86 | 7.91 | 17.1 | 11.1 | 20 |  |  |  |  |  |  | 
4 | Cn1c(=O)n(C)c2cc(CNCCc3ccc(S(N)(=O)=O)cc3)ccc21 [Compound 8] |  |  |  |  |  |  |  |  |  | ✓ | ✓ | ? | ✓ | ✓ | × | 
5 | CCCOc1cc(OCCCCN(C)C)cc(Oc2cc3c(cc2NS(=O)(=O)c2ccc(OC)c(OC)c2)n(C)c(=O)n3C)c1 [IACS-9571] |  |  |  |  |  |  |  |  |  |  |  |  |  |  |  | Kd [3]: 0.014 µM

Further lines, with some results ahead:

Row | IC50 [1, 14] [µM] | IC50 [1, 15] [µM] | IC50 [1, 16] [µM] | IC50 [7, 14] [µM] | IC50 [7, 15] [µM] | IC50 [7, 16] [µM] | IC50 [4, 17] [µM] | IC50 [4, 18] [µM] | IC50 [4, 19] [µM] | WaterLOGSY binding TRIM33β WT [8] | WaterLOGSY binding TRIM33α N1039F [9] | WaterLOGSY binding TRIM33β N1039F [10] | WaterLOGSY binding TRIM24 WT [11] | WaterLOGSY binding TRIM33α WT [12] | WaterLOGSY binding TRIM24 N980F [13] | SMILES | other results
6 | > 250 | > 250 | > 250 | > 250 | 58.7 | 55.3 | 52 | 23.1 | 18.6 |  |  |  |  |  |  | Cc1nc[nH]c1-c1nc2ccccn2c1NCCN1CCOCC1 [Compound 4] | IC50 [5]: 3.78 µM; binding to TRIM33β by ITC [6]: Neither compound showed binding
7 | 2.71 | 1.68 | 2.74 | 3.37 | 3.11 | 3.16 | 3.57 | 3.32 | 4.21 |  |  |  |  |  |  | Cc1nc[nH]c1-c1nc2ccccn2c1NC1CCCCC1 [Compound 5] | 
8 | > 250 | > 250 | > 250 | > 250 | > 250 | > 250 | 105 | 58 | 43.8 |  |  |  |  |  |  | CC(C)(C)Nc1c(-c2c[nH]c3ncccc23)nc2ccccn12 [Compound 7] | 
9 |  |  |  |  |  |  |  |  |  | ✓ | ✓ | × | × | ✓ | × | O=C(CN1CCOC(c2cncc(-c3cccc(F)c3)n2)C1)NCc1ccccn1 (stereo not drawn) [Compound 9] | 
10 |  |  |  |  |  |  |  |  |  | ✓ | ✓ | ✓ | ✓ | ✓ | ✓ | O=C(Nc1ccccc1)Nc1ccc2cccnc2c1 [Compound 10] | 
11 |  |  |  |  |  |  |  |  |  | ✓ | ✓ | ✓ | ✓ | ✓ | ✓ | Cc1cc2c(NC(=O)Nc3ccccc3)cccc2nn1 [Compound 11] | 
